# Data from patent publication US6063812A, “Fumagillol derivatives and processes for preparing the same” (Chong Kun Dang Corporation, priority 1998, dated 2000).
# Where two headings read alike, the source gives them in different places.
# Columns and labels:
# [1] = test system: CPAE (Calf Pulmonary Artery Endothelial) cells; assay: Inhibiting activity on angiogenesis in vitro: CPAE cells, SRB method; assay type: cell-based; conditions: Bos taurus, Endothelial cell, 96 h, 4 days, 10% FBS + ECGS
# Procedure: (§1) The compound sample dissolved in DMSO was diluted to ten times by using MEM culture medium (in case of CPAE cells) without adding FBS (Fetal Bovine Serum), and RPMI 1640 culture (in case of EL-4 and P388D1 cells), and 20 μl of the solution was poured to each well of 96 well plate in triplicate for every concentration gradient. Then, each cell suspension was prepared and poured to examine the inhibiting activity on angiogenesis.
# In case of CPAE (Calf Pulmonary Artery Endothelial) cells (used after 2-3 subcultures), a cell suspension having 7×10^3 cells/ml was prepared with MEM (+10% FBS+50 μg/ml ECGS) medium, and after pouring the suspension (180 μl) to each well of 96 well plate, they were cultured in a CO2 incubator (5% CO2, humidified) for 4 days.
# [2] = test system: EL-4 (Lymphoma, murine) cells; assay: Inhibiting activity on angiogenesis in vitro: EL-4 cells, MTT method; assay type: cell-based; conditions: Mus musculus, EL4, 72 h, read-out: IC50, EL-4
# Procedure: as §1
# In case of EL-4 (Lymphoma, murine) and P388D1 (leukemia, mouse) cells, a cell suspension having 1×10^4 cells/ml was prepared with RPMI1640 (+10% FBS) culture medium, and after pouring the suspension (180 μl) to each well of 96 well plate, they were cultured in a CO2 incubator (5% CO2, humidified) for 3 days.
# [3] = EL-4 cells, 3 days, MTT method, 10% FBS
Structure (SMILES),"IC50 [2, 3] [ng/mL]",IC50 [1] [ng/mL],IC50 [2] [ng/mL]
"COc1ccc(/C=C/C(=O)O[C@@H]2CC[C@]3(CO3)[C@@H]([C@@]3(C)O[C@@H]3CC=C(C)C)[C@@H]2OC)cc1 [Example 2, O-(4-methoxycinnamoyl)fumagillol]",0.0022,0.0017,
"COc1cc(/C=C/C(=O)O[C@@H]2CC[C@]3(CO3)[C@@H]([C@@]3(C)O[C@@H]3CC=C(C)C)[C@@H]2OC)cc(OC)c1OC [Example 3, O-(3,4,5-trimethoxycinnamoyl)fumagillol]",,,1.1e-05
"COc1cc(/C=C/C(=O)O[C@@H]2CC[C@](O)(CCl)[C@@H]([C@@]3(C)O[C@@H]3CC=C(C)C)[C@@H]2OC)cc(OC)c1OC [Example 5, 4-(3,4,5-trimethoxycinnamoyl)oxy-2-(1,2-epoxy-1,5-dimethyl-4-hexenyl)-3-methoxy-1-chloromethyl-1-cyclohexanol]",1.1e-05,4.8e-05,
"CO[C@@H]1[C@H](OC(=O)/C=C/c2ccc([N+](=O)[O-])cc2)CC[C@]2(CO2)[C@H]1[C@@]1(C)O[C@@H]1CC=C(C)C [Example 7, O-(4-nitrocinnamoyl)fumagillol]",0.054,0.012,
"CO[C@@H]1[C@H](OC(=O)/C=C/c2ccc(OC(C)=O)cc2)CC[C@]2(CO2)[C@H]1[C@@]1(C)O[C@@H]1CC=C(C)C [Example 9, O-(4-acetoxycinnamoyl)fumagillol]",0.0066,0.0044,
"COc1cc(/C=C/C(=O)O[C@@H]2CC[C@]3(CO3)[C@@H]([C@@]3(C)O[C@@H]3CC=C(C)C)[C@@H]2OC)cc(OC)c1OC(C)=O [Example 11, O-(4-acetoxy-3,5-dimethoxycinnamoyl)fumagillol]",0.00032,0.00021,
"COc1cc(/C=C/CO[C@@H]2CC[C@]3(CO3)[C@@H]([C@@]3(C)O[C@@H]3CC=C(C)C)[C@@H]2OC)cc(OC)c1OC [Example 17, O-(3,4,5-trimethoxycinnamyl)fumagillol]",0.0015,0.0012,
"CO[C@@H]1[C@H](OC(=O)/C=C/C=C/C=C/C=C/C(=O)O)CC[C@]2(CO2)[C@H]1[C@@]1(C)O[C@@H]1CC=C(C)C [Fumagillin, fumagillin, reference compound]",,,1.6

# Further lines, with some results ahead:
"IC50 [2, 3] [ng/mL]",Structure (SMILES),IC50 [1] [ng/mL],IC50 [2] [ng/mL]
0.84,"CO[C@@H]1[C@H](OC(=O)/C=C/c2ccc(Cl)cc2)CC[C@]2(CO2)[C@H]1[C@@]1(C)O[C@@H]1CC=C(C)C [Example 4, O-(chlorocinnamoyl)fumagillol]",0.99,
0.00069,"COc1cc(/C=C/C(=O)O[C@@H]2CC[C@]3(CO3)[C@@H]([C@@]3(C)O[C@@H]3CC=C(C)C)[C@@H]2OC)cc(OC)c1O [Example 12, O-(3,5-dimethoxy-4-hydroxycinnamoyl)fumagillol]",0.00073,
0.0016,"COc1ccc(/C=C/C(=O)O[C@@H]2CC[C@](O)(CCl)[C@@H]([C@@]3(C)O[C@@H]3CC=C(C)C)[C@@H]2OC)cc1 [Example 13, 4-(4-methoxycinnamoyl)oxy-2-(1,2-epoxy-1,5-dimethyl-4-hexenyl)-3-methoxy-1-chloromethyl-1-cyclohexanol]",0.0011,
0.00049,"CO[C@@H]1[C@H](OC(=O)/C=C/c2ccc(N(C)C)cc2)CC[C@]2(CO2)[C@H]1[C@@]1(C)O[C@@H]1CC=C(C)C [Example 14, O-(4-dimethylaminocinnamoyl)fumagillol]",0.00063,
0.0043,"CO[C@@H]1[C@H](OC(=O)/C=C/c2ccc(N)cc2)CC[C@]2(CO2)[C@H]1[C@@]1(C)O[C@@H]1CC=C(C)C [Example 15, O-(4-aminocinnamoyl)fumagillol]",0.0025,
0.00041,"CO[C@@H]1[C@H](OC(=O)/C=C/c2ccc(OCCN(C)C)cc2)CC[C@]2(CO2)[C@H]1[C@@]1(C)O[C@@H]1CC=C(C)C [Example 18, O-(4-dimethylaminoethoxycinnamoyl)fumagillol]",0.00052,
0.00057,"COc1ccc(/C=C/C(=O)O[C@@H]2CC[C@]3(CO3)[C@@H]([C@@]3(C)O[C@@H]3CC=C(C)C)[C@@H]2OC)cc1CN(C)C [Example 19, O-(3-dimethylaminomethyl-4-methoxycinnamoyl)fumagillol]",0.00032,
0.00022,"CO[C@@H]1[C@H](OC(=O)/C=C/c2ccc3c(c2)OCO3)CC[C@]2(CO2)[C@H]1[C@@]1(C)O[C@@H]1CC=C(C)C [Example 20, O-(3,4-methylenedioxycinnamoyl)fumagillol]",0.00012,
0.00082,"COc1cc(N)c(/C=C/C(=O)O[C@@H]2CC[C@]3(CO3)[C@@H]([C@@]3(C)O[C@@H]3CC=C(C)C)[C@@H]2OC)cc1OC [Example 21, O-(3,4-dimethoxy-6-aminocinnamoyl)fumagillol]",0.00083,
0.00041,"CO[C@@H]1[C@H](OC(=O)/C=C/c2ccc(N(C)C)cc2)CC[C@](O)(CCl)[C@H]1[C@@]1(C)O[C@@H]1CC=C(C)C [Example 25, 4-(4-dimethylaminocinnamoyl)oxy-2-(1,2-epoxy-1,5-dimethyl-4-hexenyl)-3-methoxy-1-chloromethyl-1-cyclohexanol]",0.00033,
